# Source: patent US9821042B2, “Use of antagonists of ghrelin or ghrelin receptor to prevent or treat stress-sensitive psychiatric illness” (Massachusetts Institute of Technology, priority 2012, dated 2017)
# Where two headings read alike, the source gives them in different places. Non-standard residues stand in square brackets, D forms with d. No end group written: not given here.
# How the values were obtained:
# [1] = cited from earlier work; for crossing of the blood-brain barrier: in vivo
# [2] = target: melanocortin receptors; conditions: cited from earlier work
# [3] = test system: corticosterone; experiment: Plasma corticosterone by ELISA in stressed rats given DLys3; type: in vivo, rat; conditions: stressed animals, tail bleeds in final 30 m of final stress session
# Method: Rats received either daily handling (NS) or immobilization stress (STR). Each day, a systemic injection of either Dlys3-GHRP-6 (Dlys3), an antagonist of GHSR-1a, or saline (VEH) was administered within 30 m of handling or stress initiation. (a) Animals received auditory fear conditioning 24 h after the last stress or handling session. […] (c) In a subset of animals in the STR group, tail bleeds were performed during the final 30 m of the final stress session and plasma corticosterone levels were measured using ELISA. All data are mean±s.e.m. * p<0.05, ˜p<0.10 in planned comparisons.
# (§1) Hormone Assays. Corticosterone, acylated ghrelin, growth hormone and CRF levels were determined using commercial ELISA kits. For corticosterone, non-acidified plasma was diluted 1:25 in assay buffer 15 (Enzo Life Sciences; Farmingdale, N.Y.). For acylated ghrelin, the acidified sample was used for the active ghrelin ELISA (Millipore; Billerica, Mass.) and processed according to the manufacturer's protocol. […] For growth hormone, brain tissue was homogenized 1:6 in lysis buffer and was assayed as per manufacturer's protocol (Millipore; Billerica, Mass.). For CRF, brain tissue collected by micro-dissection was homogenized 1:30 w/v in lysis buffer and assayed per manufacturer's protocol (Kamiya Biomedical Company, Seattle, Wash.).
# [4] = target: GHSR1a (Homo sapiens, UniProt Q92847); conditions: Tocris Bioscience literature; read-out: IC50 as inhibitor of GHSR1a; cited from earlier work
# [5] = test system: adult male Long Evans rats; experiment: Chronic immobilization stress followed by auditory fear conditioning, ghrelin receptor blockade during stress; conditions: for long-term fear memory in stressed rats (stress-enhanced fear): daily systemic injection at start of immobilization stress, 4 h/d 14 d
# Method: Drug Preparation. For systemic drug delivery, rats were injected with 1 ml/kg (i.p.) of the appropriate solution. All drugs were solubilized in 0.9% saline (vehicle) such that injection volumes remained constant for each experiment. […] D-Lys3-GHRP-6 (Tocris Biosciences; Minneapolis, Minn.) was diluted to 2.74 ug/ml in vehicle. […] D-Lys3-GHRP-6 was injected within 30 m of the start of immobilization stress or following handling.
# Immobilization Stress. Immobilization stress was administered 4 h per day for 1-14 consecutive days, depending on the experiment. Animals were placed in Decapicone plastic bags (Braintree Scientific; Braintree, Mass.), which were secured at the tail. Stress occurred in a lab room used for no other procedures. All stress sessions were performed between LOAM and 4 PM. Unstressed control rats were handled daily for 30 s. For further parallel control parameters, food was removed from the unstressed rats daily for the same 4 h period in which stressed animals were immobilized and, therefore, without food.
# Pavlovian Fear Conditioning. Fear conditioning experiments were conducted in a modified chamber (MED Associates; St. Albans, Vt.) housed in a sound-attenuated cubicle. The animals were placed in individual chambers and infrared video of each session was recorded. Each experiment used auditory fear conditioning wherein rats received 3-5 tone (2 kHz, 85 dB, 10-16s)-footshock (1-2s, 0.4-0.7 mA) pairings in a unique context (metal shock grid floors, chamber fan on, 0.3% PineSol odor, house and room lights on). Animals were allowed 2-3 m to habituate to the chamber before tone-footshock pairings were given at intervals of 1-4 m. Fear memory was tested 24-72 h later by placing the animals in a novel context (white Plexiglas plastic floors, curved Plexiglas wall inserts, fans off, 1% acetic acid odor, house and room lights off). One to 5 m after placement in the novel context, fear to the tone was assessed either by presenting a continuous tone (2 kHz, 85 dB, 8 minutes) or several discrete tones (15 10-16s tones with 1-4 m ISI). Freezing was measured using commercial software (VideoFreeze, MedAssociates, St. Albans, Vt.).
# Statistics. For each fear memory session, conditional freezing was assessed as a percentage of time spent freezing, a probability estimate that is amenable to analysis with parametric statistics. These probability estimates of freezing, along with other measures, were analyzed using ANOVA. Post hoc comparisons in the form of Fisher's PLSD tests were performed after a significant omnibus F-ratio (p<0.05). […] All data where p>0.10 are identified as not significant (ns).
# To determine whether ghrelin signaling is necessary for stress-related enhancement of fear memory, ghrelin receptor signaling was blocked during repeated stress sessions. […] Twenty-four hours following the final stress or handling session, auditory fear conditioning was administered and fear to the tone was assessed in a subsequent session.
# [6] = test system: adult male Long Evans rats; experiment: Auditory Pavlovian fear conditioning after systemic ghrelin receptor agonist injections in nonstressed rats; type: in vivo, rat; conditions: for fear memory after a single injection: 1 day of injection, conditioning 24 h later; for long-term fear memory (conditional freezing to the tone): conditioning 24 h after last injection, test 48 h later
# Method: Subjects. All experiments used adult male Long Evans rats (250-350 g, Taconic, Germantown, N.Y.), housed individually (68-72° F.; 12-h light-dark cycle, 7 AM lights on). Food and water (or 0.9% saline for adrenalectomy experiments) was provided ad libitum. Stressed and unstressed animals were housed in separate cubicles. All procedures were in accordance with the US National Institutes of Health (NIH) Guide for the Care and Use of Laboratory Animals and were approved by the MIT Institutional Animal Care and Use Committee and the Animal Care and Use Review Office of the USAMRMC.
# (§2) Pavlovian Fear Conditioning.
# To determine whether increased activation of the ghrelin receptor is sufficient for enhancement of fear memory, experiments were conducted using pharmacological agonism of GHSR-1a in non-stressed animals. […] MK-0677 (MK: 5d) or saline (VEH: 5d) was systemically administered once a day for five consecutive days in nonstressed rats to determine whether repeated ghrelin receptor agonism in the absence of stress is sufficient to increase fear learning and whether HPA hormones may play a role in this effect. […] One subset of animals was administered auditory fear conditioning 24 h after the last injection.
# [7] = test system: adult male Long Evans rats; experiment: Elevated plus maze after systemic MK-0677; type: in vivo, rat; conditions: 5 d systemic injections, single 8 minute session 24 h after last injection
# Method: Rats received a daily systemic injection of MK-0677 (MK: 5d), an agonist of GHSR-1a, or vehicle (VEH: 5d) for five days at the endogenous ghrelin signaling nadir. Spontaneous freezing (a) and locomotion (b) were assessed in a novel context 24 h after the last injection. A separate group was assessed on the elevated plus maze in a single 8 minute session 24 h after the last injection. Total arm entries (c) and open arm time (d) were measured to assess exploratory behavior and innate anxiety, respectively. (e) Animals received Pavlovian fear conditioning 24 h before beginning daily handling injections of MK-0677 (Post FC MK: 5d) or vehicle (Post FC VEH: 5d) for 5d. […] All data are mean±s.e.m.
# Elevated Plus Maze. Rats were tested for anxiety using an elevated plus maze (Hamilton Kinder; Poway, Calif.). The maze had two open arms (51 cm×12 cm each) and was located in a moderately lit room. Open arms consisted of black Plexiglas floors and no walls. The closed arms had black Plexiglas walls 40 cm high. […] Automated software (Motor Monitor 4.14) recorded the second by second movements of the animals while the experimenter made observations in an obscured corner. Each session lasted 8 m and both the observer and the software recorded the latency to exit the first arm and the number of entries into the open and closed arms. Additionally, the software recorded time spent in the each region of the maze. […]
# [8] = test system: adult male Long Evans rats; experiment: Auditory fear conditioning after repeated intra-BLA infusions of ghrelin receptor agonist; type: in vivo, rat; conditions: intra-BLA infusion daily for five days
# Method: Cannulae Implants. Rats were anesthetized with a cocktail of 10 mg/kg acepromazine, […], and 100 mg/kg ketamine (1 ml/kg; i.p.). Rats were mounted into a dual arm stereotaxic frame (Kopf Instruments; Tujunga, Calif.). The rats were then bilaterally implanted with 23-gauge stainless steel guide cannulae aimed 1 mm above the lateral amygdala: A/P −2.0, M/L+/−5.3, D/V −5.4, relative to brain surface and bregma (45). The cannulae were secured by the placement of three jeweler screws in the skull and dental acrylic. Dummy cannulae extending 1 mm past the tip of the guide cannulae were placed into the guide cannula after surgery and changed every other day. Rats received 0.03 mg/kg of Buprenex (1 ml/kg; s.c.) as post-operative pain management every 12 h for at least 24 h and up to 3 days. All rats recovered for a minimum of 5 days before experimentation commenced.
# Drug Infusion. For intra-cranial infusions, rats were placed in 5-gallon buckets containing bedding. The dummy cannulae were removed and injectors (30G stainless steel cannulae; extending 1 mm beyond the cannulae end) were inserted. The injectors were attached to Hamilton syringes (10 ul; Hamilton Co., Reno, Nev.) via polyethylene tubing, and the syringes were mounted in a Harvard syringe pump (Harvard Apparatus; Holliston, Mass.). Infusions were given at a rate of 0.1 ul/m for 5 m for a total volume of 0.5 ul/side, with 1 m for diffusion, before the injectors were removed and new dummy cannulae were inserted.
# as §2
# Fear memory requires plasticity in numerous brain regions but the basolateral complex of the amygdala (BLA) is particularly important for both formation and storage of learned fear.
# [9] = test system: growth hormone release; conditions: dose of 0.5 mg/ml; cited from earlier work
# [10] = test system: CRF; experiment: Brain CRF levels by ELISA after systemic MK-0677; type: in vivo, rat; conditions: 5 d systemic injections, 24 h after final injection
# Method: Rats received daily systemic injections of MK-0677 (MK: 5d), a GHSR-1a agonist, or saline (VEH: 5d) for five days at the endogenous ghrelin signaling nadir. (b) One group underwent auditory fear conditioning 24 h following the final injection. Fear acquisition was assessed by monitoring freezing levels. (c) Conditional freezing to the tone was assessed in a novel context 48 h following fear conditioning. A separate group was sacrificed 24 h following the final injection and microdissections of hypothalamus and amygdala performed. Brain CRF levels were measured using ELISA (d) hypothalamus, (e), basolateral complex of the amygdala). * p<0.05, ** p<0.01, ˜p<0.10 in planned comparisons.
# as §1, with “For CRF, brain tissue collected by micro-dissection was homogenized 1:30 w/v in lysis buffer and assayed per manufacturer's protocol (Kamiya Biomedical Company, Seattle, Wash.).” left out
# [11] = systemic injection once a day for 5 days, nonstressed rats
# Sequence of GHSR1a (Q92847 whole entry): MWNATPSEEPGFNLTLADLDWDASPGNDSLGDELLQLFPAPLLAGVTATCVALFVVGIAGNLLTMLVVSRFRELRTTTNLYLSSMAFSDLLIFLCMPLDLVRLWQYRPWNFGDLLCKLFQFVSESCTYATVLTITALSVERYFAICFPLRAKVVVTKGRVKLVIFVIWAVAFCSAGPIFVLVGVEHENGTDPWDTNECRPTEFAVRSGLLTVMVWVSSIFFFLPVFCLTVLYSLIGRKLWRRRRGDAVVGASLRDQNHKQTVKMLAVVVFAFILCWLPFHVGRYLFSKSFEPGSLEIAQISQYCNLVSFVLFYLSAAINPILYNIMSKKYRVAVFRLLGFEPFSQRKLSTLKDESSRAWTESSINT
compound,measurement,setting,value
H[dW][dK]W[dF]K-NH2 [D-Lys3-GHRP-6],crossing of the blood-brain barrier,[1],crosses the blood brain barrier
same,crossing of the blood-brain barrier,[1]; listed as DLys3,crosses the blood-brain barrier
same,Ki,[2],26 to 120 µM
same,stress-induced HPA activation as corticosterone secretion,[3],did not blunt
same,IC50,[4],0.9 µM
same,long-term fear memory in stressed rats (stress-enhanced fear),[5]; listed as DLys3,completely reversed stress-enhanced fear
same,long-term fear memory in stressed rats (stress-enhanced fear),[5]; listed as Dlys-3,sufficient to prevent stress-related enhancement of fear memory
same,stress enhancement of fear acquisition,[5]; daily systemic injection during immobilization stress,not seen
same,fear memory in nonstressed controls,[5]; daily systemic injection with daily handling,no effect
CC(C)(N)C(=O)N[C@H](COCc1ccccc1)C(=O)N1CCC2(CC1)CN(S(C)(=O)=O)c1ccccc12 [MK-0677],fear memory after a single injection,[6],trend towards impairment
same,fear memory after a single injection,[6]; listed as MK677,no effect
same,expression of previously acquired auditory fear memory,"[6]; conditioning 24 h before 5 d of injections, test 24 h after last injection",not affected
same,fear memory after 3 days of injections,[6]; daily injections for 3 days,no effect
same,fear memory after a single injection followed by 14 d delay,"[6]; single injection, 14 d in vivarium before conditioning",not sufficient to enhance fear
same,fear acquisition during conditioning (freezing),[6]; [11],did not alter
same,long-term fear memory (conditional freezing to the tone),[6]; [11],significantly enhanced
same,long-term fear memory (conditional freezing to the tone),"[6]; systemic injection once a day for 5 days, nonstressed rats, listed as MK677",increased fear memory
same,innate anxiety (open arm time),[7],not altered
same,freezing during fear conditioning,[8],not altered
same,long-term fear memory,[8],significantly enhanced
same,long-term fear memory,[8]; listed as MK677,sufficient to enhance fear memory
same,crossing of the blood-brain barrier,[1],readily crosses the blood-brain barrier
same,half-life,[1]; ref 30,5 to 6 h
same,half-life,"[1]; refs 47, 48",over six
same,growth hormone release,[9],significant and prolonged increases
same,tolerability,[9],well-tolerated
same,amygdalar CRF level,[10],trend for repeated ghrelin receptor activation to decrease
same,hypothalamic CRF level,[10],no change
"acylated ghrelin: acylated (bioactive) form of the peptide hormone ghrelin, infused into the BLA",long-term fear memory,[8]; listed as bioactive ghrelin,replicated
same,half-life,[1]; ref 29,~30 m
